From patent publication US20240342158A1, “METHOD OF TREATING AND/OR PREVENTING TYPE 1 DIABETES WITH CEPHARANTHINE” (ALBERT EINSTEIN COLLEGE OF MEDICINE, priority 2021, published 2024)

Assays:
[1] = test system: humanized NOD-DR3 mice immunized with Tg.1571, GAD.492 and TPO.758; experiment: Blocking the induction of APS3v in vivo: T-cell stimulation by CFSE analysis; set-up: stimulation index, T cell proliferation induced by GAD.492 / stimulation index, T cell proliferation induced by TPO.758 / T-cell proliferation induced by Tg.1571: dose or concentration left out as unconfirmed
Procedure: Blocking the Induction of APS3v by cepharanthine In Vivo: […] with the peptide mix of Tg.1571, GAD.492 and TPO.758 on day 0; mice were injected with cepharanthine IP again on days 5 and 6 prior to immunization with the same peptide mix on day 7. As controls, four humanized NOD-DR3 littermates were injected with the vehicle that was used to dissolve cepharanthine for in vivo studies [ethanol: PEG400 (Fisher Scientific): saline (5:20:75)] (Frontage Laboratories, Exton, PA) using the same timeline for immunizations.
T-Cell Stimulation and CFSE Analysis: Cells harvested from the spleen and draining lymph nodes of immunized mice were resuspended at 2×10^6 cells/ml in 0.1% BSA/PBS. 1×10^6 cells were labeled with 1.5 μM carboxyfluorescein diacetate succinimidyl ester (CFSE) (Life Technologies). After incubating for 10 min at 37° C., the staining was terminated by the addition of 4 volumes of ice-cold RPMI with 10% FBS. After incubating on ice for 5 min, the cells were washed three times with fresh RPMI and resuspended in fresh medium for counting.
The CFSE-labeled cells were plated at 2×10^5 cells/well in 100 μl medium (RPMI, 10% FBS). The cells were incubated with: medium, Tg.1571, GAD.492, TPO.758 (20 μg/ml), a negative control peptide (NC) (20 μg/ml), or mouse anti-CD3/CD28 beads (Life Technologies) that activate all CD4+ T-cells nonspecifically, as a positive control. The cells were collected after 5 days for flow cytometry analysis. All experiments were performed in quadruplicates. The results were analyzed using Flowjo (Tree Star, Ashland, OR). The stimulation index was calculated by using the following formula: stimulation index=[% proliferating lymphocytes (peptide/mitogen-treated)]/[% proliferating lymphocytes (medium-treated)].
Four humanized NOD-DR3mice were treated with cepharanthine (S53) or vehicle (used to dissolve cepharanthine) for 2 consecutive days before each of the two immunizations with Tg.1571,GAD.492 and TPO.758 peptide mix. At sacrifice, splenocytes and draining lymph node cells were incubated with each peptide and labeled with CFSE for 5 days for T-cell stimulation analysis. Briefly, the CFSE labeled cells were plated at 2×10^5 cells/well in 100 μl medium (RPMI, 10% FBS).The cells were incubated with: medium, Tg.1571, GAD.492, TPO.758 (20 μg/ml), a negative control peptide (NC) (20 μg/ml), or mouse anti-CD3/CD28 beads (Life Technologies) that activate all CD4+ T-cells non-specifically, as a positive control. The cells were collected after 5 days for flow cytometry analysis (see Materials and Methods for details).

humanized NOD-DR3 mice = experiment: Free T4 and anti-mouse Tg antibody levels in cepharanthine-treated immunized mice; type: in vivo; conditions: data not shown
Procedure: Autoantibody Measurements: Sera were collected from mice upon sacrifice and stored in −20° C. Nunc™ Maxisorp™ ELISA plate (Thermo Fisher Scientific, Waltham, MA) was coated with 10 μg/ml of either Tg.1571, GAD.492, TPO.758 or mouse Tg in bicarbonate buffer (Sigma-Aldrich) at pH 9.6 and incubated overnight. The ELISA plate was washed 4 times with PBS supplemented with 0.05% Tween (Sigma-Aldrich) [PBST]. After blocking with 2.5% BSA in PBST for 1 h at 37° C., the plate was washed with PBST for 6 times. 100 μl of the diluted sera (1:100 in 0.5% BSA/PBS) was added for 2 h with slow shaking at room temperature. After washing for 6 times with PBST, anti-mouse IgG secondary antibody (Sigma-Aldrich) was added at 1:30,000 dilution in 1% BSA/PBST and incubated for 30 min at 37° C. After washing the plate for 4 times with PBST, the freshly prepared paranitrophenylphosphate substrate (Sigma-Aldrich) was added for 1 h and the plate was read at 405 nm using the BMG reader (BMG Labtech, Cary, NC).
Free T4 Measurements: Sera were collected from mice and were assayed for free thyroxin (fT4) measurements using free thyroxine ELISA kit (Alpha Diagnostic International, San Antonio, TX, catalog no. 1110). Assay was performed according to manufacturer's protocol. […] Absorbance at 450 nm was measured using a BMG ELISA reader (BMG Labtech). […]

COc1ccc2cc1Oc1ccc(cc1)C[C@H]1c3c(cc4c(c3Oc3cc5c(cc3OC)CCN(C)[C@@H]5C2)OCO4)CCN1C [S53, Cepharanthine]
stimulation index, T cell proliferation induced by GAD.492 ([1]; -1, 5, 6, CFSE, 5 days, vehicle control 3.21): 1.53
stimulation index, T cell proliferation induced by TPO.758 ([1]; -1, 5, 6, CFSE, 5 days, vehicle control 6.39): 3.11
T-cell proliferation induced by Tg.1571 ([1]; -1, 5, 6, CFSE, 5 days, vs vehicle): suppressed T-cell proliferation induced by Tg.1571, although not statistically significant
T-cell activation (lymphocyte proliferation, CFSE) in treated mice vs vehicle treated controls ([1]; IV on days -2, -1, 5 and 6 at 1 mg/kg, sacrificed day 21): significantly suppressed T-cell activation
antibody levels against mouse Tg (humanized NOD-DR3 mice): did not significantly affect
free T4 levels (humanized NOD-DR3 mice): did not significantly affect
